Test results as given in ChEMBL document CHEMBL3045578, “Synthesis and study of the antidepressant activity of novel 4,5-dihydro-7-alkoxy(phenoxy)-tetrazolo[1,5-a]quinoline derivatives” (2012).
Calls of active or inactive are those of the source. The rule behind the calls is not given here.

Tests used:
[1] = system: Mus musculus; assay: Antidepressant activity in Mus musculus Kunming (mouse) assessed as decrease in immobility time at 40 mg/kg, po administered 30 min prior to testing measured for 6 min by tail suspension test (reference value: 110.67 +/- 11.52 secs); assay type: functional
[2] = system: Mus musculus; assay: Antidepressant activity in Mus musculus Kunming (mouse) assessed as immobility time at 40 mg/kg, po administered 30 min prior to testing measured for 6 min by forced swimming test (reference value: 177.67 +/- 10.88 secs); assay type: functional

Compound | Time [1] [s] | Time [2] [s] | Activity [1]
CCCCCCCOc1ccc2c(c1)CCc1nnnn1-2 | 20 | 170.5 | 
Clc1cccc(COc2ccc3c(c2)CCc2nnnn2-3)c1 |  | 65.17 | 
CCCCOc1ccc2c(c1)CCc1nnnn1-2 | 20 |  | 
Clc1ccc(COc2ccc3c(c2)CCc2nnnn2-3)cc1 | 20 |  | 
CCCCCOc1ccc2c(c1)CCc1nnnn1-2 | 20 | 135.67 | 
Brc1ccccc1COc1ccc2c(c1)CCc1nnnn1-2 | 20 | 65.17 | 
Fc1ccccc1COc1ccc2c(c1)CCc1nnnn1-2 | 20 |  | 
CCCOc1ccc2c(c1)CCc1nnnn1-2 | 93 | 181.5 | 
COc1ccc(COc2ccc3c(c2)CCc2nnnn2-3)cc1 | 20 | 65.17 | 
CCCCCCOc1ccc2c(c1)CCc1nnnn1-2 |  | 133.5 | 
Fc1cccc(COc2ccc3c(c2)CCc2nnnn2-3)c1 | 20 | 65.17 | 
CCOc1ccc2c(c1)CCc1nnnn1-2 | 108.17 | 179.83 | 
Cc1ccc(COc2ccc3c(c2)CCc2nnnn2-3)cc1 |  | 65.17 | 
Fc1ccc(COc2ccc3c(c2)CCc2nnnn2-3)cc1 |  | 65.17 | 
CCCCCCCCOc1ccc2c(c1)CCc1nnnn1-2 | 107.5 | 172.83 | 
Clc1ccccc1COc1ccc2c(c1)CCc1nnnn1-2 | 20 | 65.17 | 
Nc1ccc(COc2ccc3c(c2)CCc2nnnn2-3)cc1 | 98.5 | 178 | 
CNCCC(Oc1ccc(C(F)(F)F)cc1)c1ccccc1 (configuration not stated) [FLUOXETINE] |  | 93.17 | Active
c1ccc(COc2ccc3c(c2)CCc2nnnn2-3)cc1 | 20 | 95.17 | 
Brc1cccc(COc2ccc3c(c2)CCc2nnnn2-3)c1 | 20 |  | 
